Experimental data taken from patent US9993494B2, “Compositions and methods for treating fibrotic disease” (eFFECTOR Therapeutics, Inc., priority 2014, dated 2018).

System: normal human lung fibroblasts
Test: Ribosomal profiling: translational efficiency in TGFβ-treated fibroblasts
Format: cell-based
Details: TGFβ-treated fibroblasts
In short: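 Genome-wide RPF and total RNA libraries (ARTseq, RNA-Seq) were made from lysates of cycloheximide-treated, PBS-washed cells. After trimming and human-genome mapping, per-gene coding-region counts were compared between RPF and RNA for translational efficiency. Genes scoring low in either fraction were dropped.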

COC(=O)[C@H]1[C@@H](O)[C@@]2(O)c3c(OC)cc(O[C@@H]4O[C@@H]([C@H](O)CO)CO[C@H]4OC)cc3O[C@@]2(c2ccc(OC)cc2)[C@@H]1c1ccccc1 [Silvestrol]
++ (++ = 1.5 to 2.0): renormalizing the translational profile of DYNC2H1 (ENSG00000187240) | effect in renormalizing the translational profile of the gene (gene SLC2A12 (ENSG00000146411))
26 genes: number of genes whose translational efficiency was uniquely modulated by the compound (duplicate ribosomal profiles)
− (− = <0.9): renormalizing the translational profile of RPL9 (ENSG00000163682) | renormalizing the translational profile of RHOBTB3 (ENSG00000164292) | renormalizing the translational profile of HCN1 (ENSG00000164588) | renormalizing the translational profile of RPL36AL (ENSG00000165502) | renormalizing the translational profile of RPL27A (ENSG00000166441) | renormalizing the translational profile of RP11-382A20.3.1 (ENSG00000166503) | renormalizing the translational profile of ANKDD1A (ENSG00000166839) | renormalizing the translational profile of RPL13 (ENSG00000167526) | renormalizing the translational profile of EEF2 (ENSG00000167658) | renormalizing the translational profile of MURC (ENSG00000170681) | renormalizing the translational profile of HTRA3 (ENSG00000170801) | renormalizing the translational profile of CTPS (ENSG00000171793) | renormalizing the translational profile of QARS (ENSG00000172053) | renormalizing the translational profile of RPL38 (ENSG00000172809) | renormalizing the translational profile of MRPL45 (ENSG00000174100) | renormalizing the translational profile of RPL4 (ENSG00000174444) | renormalizing the translational profile of RPL15 (ENSG00000174748) | renormalizing the translational profile of DES (ENSG00000175084) | renormalizing the translational profile of EIF3F (ENSG00000175390) | renormalizing the translational profile of AMIGO3 (ENSG00000176020) | renormalizing the translational profile of C14orf49 (ENSG00000176438) | renormalizing the translational profile of RPLP2 (ENSG00000177600) | renormalizing the translational profile of IMPDH2 (ENSG00000178035) | renormalizing the translational profile of DNAJC22 (ENSG00000178401) | renormalizing the translational profile of RPL35A (ENSG00000182899) | renormalizing the translational profile of C22orf32 (ENSG00000183172) | renormalizing the translational profile of NPW (ENSG00000183971) | renormalizing the translational profile of ROBO2 (ENSG00000185008) | renormalizing the translational profile of PTCH1 (ENSG00000185920) | renormalizing the translational profile of POLR1D (ENSG00000186184) | renormalizing the translational profile of RPL14 (ENSG00000188846) | renormalizing the translational profile of LRRK2 (ENSG00000188906) | renormalizing the translational profile of NACA (ENSG00000196531) | renormalizing the translational profile of MAP3K5 (ENSG00000197442) | renormalizing the translational profile of RPL37A (ENSG00000197756) | renormalizing the translational profile of RPL12 (ENSG00000197958) | renormalizing the translational profile of LPAR1 (ENSG00000198121) | renormalizing the translational profile of RPL23A (ENSG00000198242) | renormalizing the translational profile of RPL10A (ENSG00000198755) | renormalizing the translational profile of RPL39 (ENSG00000198918) | renormalizing the translational profile of MICA (ENSG00000204520) | renormalizing the translational profile of GNB2L1 (ENSG00000204628) | renormalizing the translational profile of RPL17 (ENSG00000215472) | renormalizing the translational profile of RPL41 (ENSG00000229117) | renormalizing the translational profile of ARPC1A (ENSG00000241685) | renormalizing the translational profile of EEF1G (ENSG00000254772) | effect in renormalizing the translational profile of the gene (gene RPS2 (ENSG00000140988)) | effect in renormalizing the translational profile of the gene (gene RPS3 (ENSG00000149273)) | effect in renormalizing the translational profile of the gene (gene RPS3A (ENSG00000145425)) | effect in renormalizing the translational profile of the gene (gene RPS4X (ENSG00000198034)) | effect in renormalizing the translational profile of the gene (gene RPS4Y1 (ENSG00000129824)) | effect in renormalizing the translational profile of the gene (gene RPS5 (ENSG00000083845)) | effect in renormalizing the translational profile of the gene (gene RPS6 (ENSG00000137154)) | effect in renormalizing the translational profile of the gene (gene RPS7 (ENSG00000171863)) | effect in renormalizing the translational profile of the gene (gene RPS8 (ENSG00000142937)) | effect in renormalizing the translational profile of the gene (gene RPS9 (ENSG00000170889)) | effect in renormalizing the translational profile of the gene (gene RPS10 (ENSG00000124614)) | effect in renormalizing the translational profile of the gene (gene RPS11 (ENSG00000142534)) | effect in renormalizing the translational profile of the gene (gene RPS12 (ENSG00000112306)) | effect in renormalizing the translational profile of the gene (gene RPS13 (ENSG00000110700)) | effect in renormalizing the translational profile of the gene (gene RPS14 (ENSG00000164587)) | effect in renormalizing the translational profile of the gene (gene RPS15 (ENSG00000115268)) | effect in renormalizing the translational profile of the gene (gene RPS15A (ENSG00000134419)) | effect in renormalizing the translational profile of the gene (gene RPS16 (ENSG00000105193)) | effect in renormalizing the translational profile of the gene (gene RPS18 (ENSG00000231500)) | effect in renormalizing the translational profile of the gene (gene RPS19 (ENSG00000105372)) | effect in renormalizing the translational profile of the gene (gene RPS20 (ENSG00000008988)) | effect in renormalizing the translational profile of the gene (gene RPS21 (ENSG00000171858)) | effect in renormalizing the translational profile of the gene (gene RPS23 (ENSG00000186468)) | effect in renormalizing the translational profile of the gene (gene RPS24 (ENSG00000138326)) | effect in renormalizing the translational profile of the gene (gene RPS25 (ENSG00000118181)) | effect in renormalizing the translational profile of the gene (gene RPS26 (ENSG00000197728)) | effect in renormalizing the translational profile of the gene (gene RPS27 (ENSG00000177954)) | effect in renormalizing the translational profile of the gene (gene RPS27A (ENSG00000143947)) | effect in renormalizing the translational profile of the gene (gene RPS28 (ENSG00000233927)) | effect in renormalizing the translational profile of the gene (gene RPS29 (ENSG00000213741)) | effect in renormalizing the translational profile of the gene (gene RPSA (ENSG00000168028)) | effect in renormalizing the translational profile of the gene (gene RTN2 (ENSG00000125744)) | effect in renormalizing the translational profile of the gene (gene SEMA3A (ENSG00000075213)) | effect in renormalizing the translational profile of the gene (gene SHC3 (ENSG00000148082)) | effect in renormalizing the translational profile of the gene (gene SLC7A7 (ENSG00000155465)) | effect in renormalizing the translational profile of the gene (gene SLC15A3 (ENSG00000110446)) | effect in renormalizing the translational profile of the gene (gene SLC25A6 (ENSG00000169100)) | effect in renormalizing the translational profile of the gene (gene SLC40A1 (ENSG00000138449)) | effect in renormalizing the translational profile of the gene (gene SMO (ENSG00000128602)) | effect in renormalizing the translational profile of the gene (gene SOX5 (ENSG00000134532)) | effect in renormalizing the translational profile of the gene (gene SOX6 (ENSG00000110693)) | effect in renormalizing the translational profile of the gene (gene SPATA6 (ENSG00000132122)) | effect in renormalizing the translational profile of the gene (gene STS (ENSG00000101846)) | effect in renormalizing the translational profile of the gene (gene SYNE2 (ENSG00000054654)) | effect in renormalizing the translational profile of the gene (gene TAF1D (ENSG00000166012)) | effect in renormalizing the translational profile of the gene (gene TDG (ENSG00000139372)) | effect in renormalizing the translational profile of the gene (gene TET2 (ENSG00000168769)) | effect in renormalizing the translational profile of the gene (gene TET3 (ENSG00000187605)) | effect in renormalizing the translational profile of the gene (gene TGFBI (ENSG00000120708)) | effect in renormalizing the translational profile of the gene (gene THG1L (ENSG00000113272)) | effect in renormalizing the translational profile of the gene (gene TIMM9 (ENSG00000100575)) | effect in renormalizing the translational profile of the gene (gene TKT (ENSG00000163931)) | effect in renormalizing the translational profile of the gene (gene TOMM7 (ENSG00000196683)) | effect in renormalizing the translational profile of the gene (gene TPGS1 (ENSG00000141933)) | effect in renormalizing the translational profile of the gene (gene TPM2 (ENSG00000198467)) | effect in renormalizing the translational profile of the gene (gene TPT1 (ENSG00000133112)) | effect in renormalizing the translational profile of the gene (gene UBA52 (ENSG00000221983)) | effect in renormalizing the translational profile of the gene (gene UQCRB (ENSG00000156467)) | effect in renormalizing the translational profile of the gene (gene UTRN (ENSG00000152818)) | effect in renormalizing the translational profile of the gene (gene VIM (ENSG00000026025)) | effect in renormalizing the translational profile of the gene (gene ZNF581 (ENSG00000171425)) | effect in renormalizing the translational profile of the gene (gene ZNF608 (ENSG00000168916))
+ (+ = 0.9 to 1.5): renormalizing the translational profile of CA5B (ENSG00000169239) | renormalizing the translational profile of PDE7B (ENSG00000171408) | renormalizing the translational profile of LPAR3 (ENSG00000171517) | renormalizing the translational profile of CLCF1 (ENSG00000175505) | renormalizing the translational profile of LENG9 (ENSG00000182909) | renormalizing the translational profile of LAMB3 (ENSG00000196878) | renormalizing the translational profile of PCBP2 (ENSG00000197111) | renormalizing the translational profile of CARD16 (ENSG00000204397) | effect in renormalizing the translational profile of the gene (gene RPS6KA5 (ENSG00000100784)) | effect in renormalizing the translational profile of the gene (gene SGIP1 (ENSG00000118473)) | effect in renormalizing the translational profile of the gene (gene SNRPA (ENSG00000077312)) | effect in renormalizing the translational profile of the gene (gene STAMBPL1 (ENSG00000138134)) | effect in renormalizing the translational profile of the gene (gene TEN1 (ENSG00000257949)) | effect in renormalizing the translational profile of the gene (gene THBS3 (ENSG00000169231)) | effect in renormalizing the translational profile of the gene (gene TRERF1 (ENSG00000124496))
+++ (+++ = >2.0): renormalizing the translational profile of PDE4B (ENSG00000184588) | effect in renormalizing the translational profile of the gene (gene TMTC1 (ENSG00000133687)) | effect in renormalizing the translational profile of the gene (gene TOP2A (ENSG00000131747))
